Assay results reported in patent US8618290B2, “HSP90 inhibitors” (Takeda Pharmaceutical Company Limited, priority 2008, dated 2013).

biological target: human HSP90a (recombinant N-terminal nucleotide binding domain) (Homo sapiens (Human), UniProt P07900); assay: Competition fluorescence polarization binding assay with TSD-FP probe; conditions: method of Example A-1; incubation time not stated; read-out: Binding Affinity IC50
Method: The reaction can be followed kinetically using fluorescence (excitation λ=485 nm; emission λ=538 nm). The binding affinity of the test compound to HSP90 is determined by the changes in the polarized fluorescence; the intensity of the polarized fluorescence is proportional to the fraction of bound probe. A novel small molecule fluorescence probe, (S,E)-5-(2-(2-amino-7-(4-fluoro-2-(6-methoxypyridin-2-yl)phenyl)-4-methyl-7,8-dihydroquinazolin-5(6H)-ylideneaminooxy)ethylcarbamoyl)-2-(6-hydroxy-3-oxo-3H-xanthen-9-yl)benzoic acid (TSD-FP probe) was specifically developed for the assay. Inhibition constants (IC50) may be calculated by non-linear curve fitting of the compound concentrations and fluorescence intensities to the standard IC50 equation.
The sequence of human wild-type HSP90a is well known in the art; see, Chen B. et al. Genomics 2005.86:627-637. The gene encoding HSP90a can be isolated from RNA, cDNA or cDNA libraries. In this case, the gene encoding residues 9-236 of image clone 5270926 of HSP90α (ATCC) was isolated. This portion of the gene encoding a section of human HSP90a that includes the N-terminal nucleotide binding domain of human HSP90a was cloned into pET28a vector (Novagen). The DNA sequence of the vector is shown in SEQ ID NO: 1. Expression from this vector produced a protein consisting of the recombinant N-terminal nucleotide binding domain of HSP90a with a cleavable 6′-histidine tag and a cleavage site at the N-terminus The amino acid sequence of this recombinant protein is shown in SEQ ID NO: 2.
Recombinant human N-terminal truncated His6-HSP90a was expressed in E. coli (BL21) cells with IPTG induction. Cell paste from 24×60 mL tubes (grown in a multi-tube airlift fermentor) was lysed using an automated sample lyser. Briefly, the pellet in each tube was suspended in 21 mL of lysis buffer consisting of 50 mM Tris pH 7.9, 50 mM NaCl, 1 mM MgCl2, 0.6 g/L Lysozyme (Sigma), 100 μL/L Benzonase (Novagen). […] After incubation, 5 M NaCl was added to bring the final salt concentration to 400 mM. The tubes were sonicated for 50 seconds and then centrifuged at 3400 rpm for 50 min. The supernatants were pooled and 4 ml of ProBond Ni resin (Invitrogen) was added. After at least 30 minutes, the resin was spun down, washed with 25 mM Tris pH 7.6, 400 mM NaCl, 20 mM imidazole, poured into a column and washed with 10 column volumes of the same buffer. The protein was eluted from the column using 3 column volumes of 25 mM Tris pH 7.6, 400 mM NaCl, 400 mM imidazole. The eluate was loaded onto a Supedex 200 column (GE Healthcare) equilibrated with 25 mM Tris pH 7.6, 250 mM NaCl, 0.25 mM TCEP, 1 mM EDTA and peak fractions were pooled and concentrated to ˜6 mg/mL using 10 kDA MWCO centrifugal concentrators (Millipore). Aliquots were flash frozen in liquid nitrogen and stored at −80° C. All purification was done at 4° C.
A fluorescein labeled small molecule was designed and synthesized as a probe (TSD-FP probe) for the determination of the binding affinity of the test compound to HSP90 proteins. The synthesis of the small molecule, (S,E)-2-amino-7-(4-fluoro-2-(6-methoxypyridin-2-yl)phenyl)-4-methyl-7,8-dihydroquinazolin-5(6H)-one O-2-aminoethyl oxime (Compound 24) was described in Examples 24 and 25 above. The TSD-FP probe was prepared according to the following procedure:
The inhibitory effect of the compounds of the invention against HSP90a was determined by fluorescence polarization assay. The assay was run in a black 384-well-plate and in an assay buffer comprising 25 mM Hepes pH 7.3, 150 mM NaCl, 0.1 mM EDTA, 0.01% Brij35, 1 mM DTT.
To each test well, an aliquot of buffer, 2 μl of test compound in 10% DMSO, 4 μl of 6.25 nM of TSD FP probe, 4 μl of 12.5 nM of purified HSP90a protein were added. […] For negative control, no inhibitor was added.

Row | IC50 | Compound
1 | 10 nM | COc1cccc(-c2cc(F)ccc2[C@H]2Cc3nc(N)nc(C)c3/C(=N/OC[C@H]3O[C@@H](OC)[C@H](O)[C@@H]3O)N2)n1 (mixture of isomers) [Compound 45, (R,Z)-2-amino-7-(4-fluoro-2-(6-methoxypyridin-2-yl)phenyl)-4-methyl-7,8-dihydropyrido[4,3-d]pyrimidin-5(6H)-one O-((2R,3S,4R,5R)-3,4-dihydroxy-5-methoxytetrahydrofuran-2-yl)methyl oxime]
2 | 6 nM | COc1cccc(-c2cc(F)ccc2[C@H]2Cc3nc(N)nc(C)c3/C(=N/OCC[C@H](O)CO)N2)n1 [Compound 37, (R,Z)-2-amino-7-(4-fluoro-2-(6-methoxypyridin-2-yl)phenyl)-4-methyl-7,8-dihydropyrido[4,3-d]pyrimidin-5(6H)-one O—(S)-3,4-dihydroxybutyl oxime]
3 | 5 nM | COc1cccc(-c2cc(F)ccc2[C@H]2Cc3nc(N)nc(C)c3/C(=N/OC3C[C@@H](O)[C@@H](O)C3)N2)n1 (stereo partly drawn) [Compound 58, (7R,Z)-2-amino-7-(4-fluoro-2-(6-methoxypyridin-2-yl)phenyl)-4-methyl-7,8-dihydropyrido[4,3-d]pyrimidin-5(6H)-one O-(3R,4S)-3,4-dihydroxycyclopentyl oxime]
4 | 8 nM | COc1cccc(-c2cc(F)ccc2[C@H]2Cc3nc(N)nc(C)c3/C(=N/OCC3C[C@@H](O)[C@@H](O)C3)N2)n1 (stereo partly drawn) [Compound 59, (7R,Z)-2-amino-7-(4-fluoro-2-(6-methoxypyridin-2-yl)phenyl)-4-methyl-7,8-dihydropyrido[4,3-d]pyrimidin-5(6H)-one O-((3R,4S)-3,4-dihydroxycyclopentyl)methyl oxime]
5 | 3 nM | COc1cccc(-c2cc(F)ccc2[C@H]2Cc3nc(N)nc(C)c3/C(=N/O)N2)n1 [Compound 61, (R,Z)-2-amino-7-(4-fluoro-2-(6-methoxypyridin-2-yl)phenyl)-4-methyl-7,8-dihydropyrido[4,3-d]pyrimidin-5(6H)-one oxime]
6 | 4 nM | COc1cccc(-c2cc(F)ccc2[C@H]2Cc3nc(N)nc(C)c3/C(=N/OCCCO)N2)n1 [Compound 78, (R,Z)-2-amino-7-(4-fluoro-2-(6-methoxypyridin-2-yl)phenyl)-4-methyl-7,8-dihydropyrido[4,3-d]pyrimidin-5(6H)-one O-3-hydroxypropyl oxime]
7 | 6 nM | COc1cccc(-c2cc(F)ccc2[C@H]2Cc3nc(N)nc(C)c3/C(=N/OCCCCO)N2)n1 [Compound 79, (R,Z)-2-amino-7-(4-fluoro-2-(6-methoxypyridin-2-yl)phenyl)-4-methyl-7,8-dihydropyrido[4,3-d]pyrimidin-5(6H)-one O-4-hydroxybutyl oxime]
8 | 8 nM | COc1cccc(-c2cc(F)ccc2[C@H]2Cc3nc(N)nc(C)c3/C(=N/OCC(=O)N(C)C)N2)n1 [Compound 83, (R,Z)-2-(2-amino-7-(4-fluoro-2-(6-methoxypyridin-2-yl)phenyl)-4-methyl-7,8-dihydropyrido[4,3-d]pyrimidin-5(6H)-ylideneaminooxy)-N,N-dimethylacetamide]
9 | 4 nM | COc1cccc(-c2cc(F)ccc2[C@H]2Cc3nc(N)nc(C)c3/C(=N/OCC(=O)N3CC[C@@H](F)C3)N2)n1 [Compound 85, 2-((Z)—((R)-2-amino-7-(4-fluoro-2-(6-methoxypyridin-2-yl)phenyl)-4-methyl-7,8-dihydropyrido[4,3-d]pyrimidin-5(6H)-ylidene)aminooxy)-1-((R)-3-fluoropyrrolidin-1-yl)ethanone]
10 | 8 nM | COc1cccc(-c2cc(F)ccc2[C@H]2Cc3nc(N)nc(C)c3/C(=N/O[C@@H](CCO)C(=O)N(C)C)N2)n1 [Compound 93, (S)-2-((Z)—((R)-2-amino-7-(4-fluoro-2-(6-methoxypyridin-2-yl)phenyl)-4-methyl-7,8-dihydropyrido[4,3-d]pyrimidin-5(6H)-ylidene)aminooxy)-4-hydroxy-N,N-dimethylbutanamide]
11 | 13 nM | COc1cccc(-c2cc(F)ccc2[C@H]2Cc3nc(N)nc(C)c3/C(=N/OCC(=O)N(C)C[C@H](O)CO)N2)n1 [Compound 96, 2-((Z)—((R)-2-amino-7-(4-fluoro-2-(6-methoxypyridin-2-yl)phenyl)-4-methyl-7,8-dihydropyrido[4,3-d]pyrimidin-5(6H)-ylidene)aminooxy)-N—((S)-2,3-dihydroxypropyl)-N-methylacetamide]
12 | 8 nM | COc1cccc(-c2cc(F)ccc2[C@H]2Cc3nc(N)nc(C)c3/C(=N/OCC(=O)N(C)CCO)N2)n1 [Compound 99, (R,Z)-2-(2-amino-7-(4-fluoro-2-(6-methoxypyridin-2-yl)phenyl)-4-methyl-7,8-dihydropyrido[4,3-d]pyrimidin-5(6H)-ylideneaminooxy)-N-(2-hydroxyethyl)-N-methylacetamide]

Row | Compound | IC50
13 | COc1cccc(-c2cc(F)ccc2[C@H]2Cc3nc(N)nc(C)c3/C(=N/OC[C@H](O)CO)N2)n1 [Compound 33, (R,Z)-2-Amino-7-(4-fluoro-2-(6-methoxypyridin-2-yl)phenyl)-4-methyl-7,8-dihydropyrido[4,3-d]pyrimidin-5(6H)-one O—(R)-2,3-dihydroxypropyl oxime] | 4 nM
14 | COc1cccc(-c2cc(F)ccc2[C@H]2Cc3nc(N)nc(C)c3/C(=N/OCC(CO)CO)N2)n1 [Compound 35, (R,Z)-2-Amino-7-(4-fluoro-2-(6-methoxypyridin-2-yl)phenyl)-4-methyl-7,8-dihydropyrido[4,3-d]pyrimidin-5(6H)-one O-3-hydroxy-2-(hydroxymethyl)propyl oxime] | 13 nM
15 | COc1cccc(-c2cc(F)ccc2[C@H]2Cc3nc(N)nc(C)c3/C(=N/OCC3CCC(O)CC3)N2)n1 (stereo partly drawn) [Compound 65, (R,Z)-2-amino-7-(4-fluoro-2-(6-methoxypyridin-2-yl)phenyl)-4-methyl-7,8-dihydropyrido[4,3-d]pyrimidin-5(6H)-one O-((1s,4S)-4-hydroxycyclohexyl)methyl oxime] | 10 nM
